The values below come from patent US20250082766A1, “TREATMENT OF BRAIN TUMORS BY TARGETING THE CHOLESTEROL PATHWAY IN ASTROCYES” (Ramot at Tel-Aviv University Ltd., priority 2022, published 2025).

Assay [1] deals with LDLR. Briefly: LDLR expression by immunoblot in glioma cells treated with LXR agonist. It is filed as cell-based, mouse. Particulars: GL261 and CT-2A cells; 24-OHC vs Mock (DMSO); FIGS. 5H-I. As for the experimental part:
FIGS. 5A-N illustrate that astrocyte-derived cholesterol supports glioma survival. (FIGS. 5A-D) Real-time changes in the ECAR (FIGS. 5A-B) and oxygen consumption rate (OCR) (FIGS. 5C-D) of GL261 glioma cells, cultured in media supplemented with full serum (FCS, fetal calf serum) or lipoprotein-deprived serum (LPDS, Lipoprotein-deficient serum) for 18 hours and measured using Seahorse. Oligo, oligomycin; FCCP, carbonyl cyanide4-(trifluoromethoxy) phenylhydrazone; R/A, rotenone plus antimycin A; 2-DG, 2-deoxy-d-glucose. Glycolysis, glycolytic capacity and glycolytic reserve were extracted from the ECAR reading, and basal respiration, adenosine triphosphate (ATP) production, Maximal respiration, and spare respiratory capacity were determined based on OCR. […] (FIG. 5E) Percentage of cell death of GL261 and CT-2A glioma cells, or primary astrocytes, cultured in FCS or LPDS for 5 days; as determined by Annexin-V assay (n=5 independent experiments). […] Representative flow cytometry plots of Annexin-V/DAPI staining from each group are shown in FIG. 5F and quantification analyses of cholesterol rescue are in FIG. 5G (n=5 biologically independent experiments). […] (FIG. 5N) quantification analyses of human U87EGFRvIII (U87) glioma cells co-cultured with human primary astrocytes for 5 days (n=3 biologically independent experiments). […]
Background: A western blot detects proteins with antibodies after separation by electrophoresis.

The subject of assay [2] is GL261 and CT-2A glioma cells. Briefly: Cell viability assay (Annexin V/DAPI FACS) of glioma cells. The assay is classed as cell-based, mouse. Conditions: 24-OHC for 72 hours; GL261 and CT-2A glioma cell lines; FIGS. 5J-K. As for the experimental part: FIGS. 5A-N illustrate that astrocyte-derived cholesterol supports glioma survival. (FIGS. 5A-D) Real-time changes in the ECAR (FIGS. 5A-B) and oxygen consumption rate (OCR) (FIGS. 5C-D) of GL261 glioma cells, cultured in media supplemented with full serum (FCS, fetal calf serum) or lipoprotein-deprived serum (LPDS, Lipoprotein-deficient serum) for 18 hours and measured using Seahorse. Oligo, oligomycin; FCCP, carbonyl cyanide4-(trifluoromethoxy) phenylhydrazone; R/A, rotenone plus antimycin A; 2-DG, 2-deoxy-d-glucose. Glycolysis, glycolytic capacity and glycolytic reserve were extracted from the ECAR reading, and basal respiration, adenosine triphosphate (ATP) production, Maximal respiration, and spare respiratory capacity were determined based on OCR. Data are representative of two independent experiments (n=6 technical replicates per experiment). (FIG. 5E) Percentage of cell death of GL261 and CT-2A glioma cells, or primary astrocytes, cultured in FCS or LPDS for 5 days; as determined by Annexin-V assay (n=5 independent experiments). […] Representative flow cytometry plots of Annexin-V/DAPI staining from each group are shown in FIG. 5F and quantification analyses of cholesterol rescue are in FIG. 5G (n=5 biologically independent experiments). (FIGS. 5H-K) Representative images and quantification of LDLR expression (Immunoblot, FIGS. 5H-I) and cell death via FACS analysis of Annexin V/DAPI staining (FIGS. 5J-K) in response to endogenous LXR agonists (24-OHC) or Mock (DMSO) treatment in GL261 and CT-2A cells (n=3 biologically independent experiments). […] (FIGS. 5L-M) Representative flow cytometry plots of murine GL261 and CT-2A glioma cells co-cultured for 5 days with primary mouse astrocytes are shown in FIG. 5L and quantification analyses in FIG. 5M (n=4 biologically independent experiments). (FIG. 5N) quantification analyses of human U87EGFRvIII (U87) glioma cells co-cultured with human primary astrocytes for 5 days (n=3 biologically independent experiments). […]

Assay [3] deals with tumours with EGFR or IDH1 mutations. Particulars: patient-derived GBM xenograft mice; cited from earlier work. Background: In xenograft studies the graft and the host belong to different species.
The test system of assay [4] is glioma. Particulars: OXPHOS-targeting drugs; cited from earlier work.
Assay [5] has as its target cholesterol transporter ABCA1 (Homo sapiens, UniProt O95477). Conditions: cited from earlier work.
The test system of assay [6] is murine GL261 glioma cells co-cultured with astrocytes. Kind of assay: LPDS-induced glioma cell death in astrocyte-glioma co-cultures with cholesterol-lowering drugs, Annexin-V assay. Conditions: cholesterol-deprived (LPDS) astrocyte-GL261 co-cultures, FIGS. 15A-D, n=2. It is filed as cell-based, mouse. From the text: FIGS. 15A-D illustrate that cholesterol-lowering drugs inhibit astrocyte-mediated rescue of glioma cells from cholesterol deprivation. Analysis of LPDS-induced glioma cell death, co-cultured with astrocytes, in the presence of absence of cholesterol-lowering drugs, by Annexin-V assay. (FIGS. 15A-C) Representative flow cytometry plots of murine GL261 treated with statins (FIG. 15A) or ABCA1 inhibitors Probucol (FIG. 15B), and Glyburide (FIG. 15C), and this quantification analyses (FIG. 15D). n=2 biologically independent experiments.
Moreover, statins and probucol, or glyburide, target different nodes in the cholesterol efflux mechanism (synthesis and extracellular export). Therefore, the present inventor further tests whether the combinations of the two drug groups would have a synergistic effect on glioma viability.

The test system of another assay is GL261 glioma (GBM). Kind of assay: Primary GBM model: GL261 intracranially implanted mice treated with Probucol. The assay is classed as in vivo, mouse. Conditions: summary statement on ABCA1 inhibitors; FIGS. 16A-E. As for the experimental part: (FIG. 16A) Illustration of the experimental design for primary and recurrent GBM models. (FIGS. 16B-D) WT mice were intracranially (IC) implanted with GL261 cells. Tumor-bearing mice were treated daily, starting at day 10, with Probucol (30 mg/kg) or vehicle. (FIG. 16B) Tumor growth curve as determined by IVIS, (FIG. 16C) mice weight loss, and (FIG. 16D) Kaplan-Meier curves assess overall survival. p-value by Two-way ANOVA. Data represent Mean±SEM, 8 mice/group. (FIG. 16E) Illustration of the predicted effects of probucol or glyburide in the different models/disease stages.
For intracranial mouse glioma, mice were anesthetized, positioned in a Stereotaxic Alignment System, and injected with 1.5×10^4 GL261 or CT-2A cells in 2 μl of DMEM. Injections were made to the right frontal lobe, approximately 2.5 mm lateral and 0.1 mm caudal from bregma at a depth of 3 mm. In-vivo bioluminescence imaging, following XenoLight D-luciferin Potassium Salt administration (150 mg/kg) i.p. administration, was determined using IVIS Spectrum system (PerkinElmer). Ganciclovir (GCV, Cymevene, Roche #SAP-10051872; 25 mg/kg), Diphtheria-toxin (DT, Sigma-Aldrich, #D0564; 1100 ng/mice), or vehicle control (PBS) were administered daily following tumor establishment (day 10), as previously described (Mayo, L., et al. Nat Med (2014) 20: 1147-1156). CD8^+ T cell depletion was performed using an anti-CD8 monoclonal antibody ([…], Bioxcell) or an isotype control monoclonal antibody (2A3, Bioxcell), as previously described (Takenaka, M. C. et al. Control of tumor-associated macrophages and T cells in glioblastoma via AHR and CD39. Nat Neurosci 22, 729-740 (2019)). GBM-bearing mice were intraperitoneally injected (0.1 mg/mouse) with an anti-CD8 or an isotype control mAbs, 1 day before, and 7 days after, GCV administration. CD8 T-cell depletion was validated by FACS analysis using a Sony SH800 FACS instrument (Sony Biotechnology). Data analysis was performed using FlowJo v10 (TreeStar, USA). The following reagents were used for analysis: anti-CD45 (1:100; 30-F11, Biolegend, #103106), anti-CD3[…] (1:50; 145-2C11, Biolegend #100335), and anti-CD8a (1:100; 53-6.7, Biolegend, #100765).
To investigate this hypothesis, C57Bl/6 mice are implanted with GFP^+ luciferase-expressing glioma cells (GL261 or CT-2A), using two subtype models—primary or recurrent GBM/brain tumor resection (as illustrated in FIG. 16A), and are treated daily with probucol, glyburide, or vehicle control, with or without a potent statin (e.g., simvastatin as shown in FIG. 15A). The dosage of the different drugs is optimized based on FDA guidelines for conversions from human-accepted dosages (Table 5 below).
In the primary GBM model (pGBM)—10 days after tumor implantation, the mice are treated with cholesterol-lowering drugs (FIG. 16A). In the recurrent GBM model (rGBM), 12-14 days after inoculation of the mice with the tumor cells, the visible tumor(s) are surgically removed, based on GFP expression, under a stereoscope. The mice are then allowed to recover for a week and then are treated with cholesterol-lowering drugs (FIG. 16A). Of note, tumor formation or recurrence is monitored by bioluminescence (BLI) signals from the tumor cells on in-vivo imaging system (IVIS) spectrum and quantified with Living Image software. Mice are monitored for tumor growth, peritumoral brain edema formation, and mouse survival until the experimental endpoint (extreme lethargy or body weight reduction of greater than 20%), or are euthanized seven days after treatment with the cholesterol-lowering drugs to assess tumor burden, angiogenesis, BBB stability, and immunomodulatory activity in-situ. Tumor volume is evaluated in-vivo by determining tumor BLI, and by histopathology analysis postmortem. Peritumoral brain edema is evaluated in-vivo using IVISense™ Edema (Superhance™ 680) fluorescent probe. […]

Assay [7] relates to glioma. Particulars: experimental glioma mouse models; cited from earlier work.
The subject of assay [8] is LDLR. Kind of assay: LDLR levels (immunoblot) in GL261 cells treated with conditioned media of PCSK9-transduced astrocytes. It is filed as cell-based, mouse. Conditions: astrocyte-conditioned media (wild type PCSK9-encoding vs empty lentivirus), 24 hours; FIG. 21B. As for the experimental part:
FIGS. 21A-D illustrate that PCSK9 overexpression in the cancer microenvironment halts glioma progression. (FIG. 21A) Box plot analysis of TCGA gene expression for PCSK9 in normal (Norm; n=207), GBM patients (n=163), or low-grade glioma (LGG, n=518). n represents the number of patients per group. (FIG. 21B) Astrocytes were transduced with wild type PCSK9-encoding or empty lentivirus, and 24 hours later, the media was collected and transferred to glioma cells. Representative immunoblot analyses comparing LDLR and ACTIN levels in GL261 glioma cells treated with the astrocyte-conditioned media for 24 hours. (n=2 biologically independent experiments). […] PCSK9-encoding or empty lentiviruses were injected into the TME of GL261-bearing mice 9 and 15 days after tumor implantation. (FIG. 21C) Analysis of tumor size, based on tumor bioluminescence. (FIG. 21D) Kaplan-Meier curves assessing overall survival of these groups. Data are representative of two independent experiments with n=6 mice/group. Data are shown as mean±s.e.m. P values were determined by two-sided Student's t-tests (FIG. 21A), two-way ANOVA (FIG. 21C), or Log rank (Mantel-Cox) test (FIG. 21D). *P<0.05, **P<0.01, ***P<0.001.
Cells were lysed in RIPA buffer supplemented with protease inhibitors (Cell Signaling). […] Quantification was done using Image Studio Lite software version 5.2 (LI-COR Biosciences).

Sequence of cholesterol transporter ABCA1 (O95477 whole entry): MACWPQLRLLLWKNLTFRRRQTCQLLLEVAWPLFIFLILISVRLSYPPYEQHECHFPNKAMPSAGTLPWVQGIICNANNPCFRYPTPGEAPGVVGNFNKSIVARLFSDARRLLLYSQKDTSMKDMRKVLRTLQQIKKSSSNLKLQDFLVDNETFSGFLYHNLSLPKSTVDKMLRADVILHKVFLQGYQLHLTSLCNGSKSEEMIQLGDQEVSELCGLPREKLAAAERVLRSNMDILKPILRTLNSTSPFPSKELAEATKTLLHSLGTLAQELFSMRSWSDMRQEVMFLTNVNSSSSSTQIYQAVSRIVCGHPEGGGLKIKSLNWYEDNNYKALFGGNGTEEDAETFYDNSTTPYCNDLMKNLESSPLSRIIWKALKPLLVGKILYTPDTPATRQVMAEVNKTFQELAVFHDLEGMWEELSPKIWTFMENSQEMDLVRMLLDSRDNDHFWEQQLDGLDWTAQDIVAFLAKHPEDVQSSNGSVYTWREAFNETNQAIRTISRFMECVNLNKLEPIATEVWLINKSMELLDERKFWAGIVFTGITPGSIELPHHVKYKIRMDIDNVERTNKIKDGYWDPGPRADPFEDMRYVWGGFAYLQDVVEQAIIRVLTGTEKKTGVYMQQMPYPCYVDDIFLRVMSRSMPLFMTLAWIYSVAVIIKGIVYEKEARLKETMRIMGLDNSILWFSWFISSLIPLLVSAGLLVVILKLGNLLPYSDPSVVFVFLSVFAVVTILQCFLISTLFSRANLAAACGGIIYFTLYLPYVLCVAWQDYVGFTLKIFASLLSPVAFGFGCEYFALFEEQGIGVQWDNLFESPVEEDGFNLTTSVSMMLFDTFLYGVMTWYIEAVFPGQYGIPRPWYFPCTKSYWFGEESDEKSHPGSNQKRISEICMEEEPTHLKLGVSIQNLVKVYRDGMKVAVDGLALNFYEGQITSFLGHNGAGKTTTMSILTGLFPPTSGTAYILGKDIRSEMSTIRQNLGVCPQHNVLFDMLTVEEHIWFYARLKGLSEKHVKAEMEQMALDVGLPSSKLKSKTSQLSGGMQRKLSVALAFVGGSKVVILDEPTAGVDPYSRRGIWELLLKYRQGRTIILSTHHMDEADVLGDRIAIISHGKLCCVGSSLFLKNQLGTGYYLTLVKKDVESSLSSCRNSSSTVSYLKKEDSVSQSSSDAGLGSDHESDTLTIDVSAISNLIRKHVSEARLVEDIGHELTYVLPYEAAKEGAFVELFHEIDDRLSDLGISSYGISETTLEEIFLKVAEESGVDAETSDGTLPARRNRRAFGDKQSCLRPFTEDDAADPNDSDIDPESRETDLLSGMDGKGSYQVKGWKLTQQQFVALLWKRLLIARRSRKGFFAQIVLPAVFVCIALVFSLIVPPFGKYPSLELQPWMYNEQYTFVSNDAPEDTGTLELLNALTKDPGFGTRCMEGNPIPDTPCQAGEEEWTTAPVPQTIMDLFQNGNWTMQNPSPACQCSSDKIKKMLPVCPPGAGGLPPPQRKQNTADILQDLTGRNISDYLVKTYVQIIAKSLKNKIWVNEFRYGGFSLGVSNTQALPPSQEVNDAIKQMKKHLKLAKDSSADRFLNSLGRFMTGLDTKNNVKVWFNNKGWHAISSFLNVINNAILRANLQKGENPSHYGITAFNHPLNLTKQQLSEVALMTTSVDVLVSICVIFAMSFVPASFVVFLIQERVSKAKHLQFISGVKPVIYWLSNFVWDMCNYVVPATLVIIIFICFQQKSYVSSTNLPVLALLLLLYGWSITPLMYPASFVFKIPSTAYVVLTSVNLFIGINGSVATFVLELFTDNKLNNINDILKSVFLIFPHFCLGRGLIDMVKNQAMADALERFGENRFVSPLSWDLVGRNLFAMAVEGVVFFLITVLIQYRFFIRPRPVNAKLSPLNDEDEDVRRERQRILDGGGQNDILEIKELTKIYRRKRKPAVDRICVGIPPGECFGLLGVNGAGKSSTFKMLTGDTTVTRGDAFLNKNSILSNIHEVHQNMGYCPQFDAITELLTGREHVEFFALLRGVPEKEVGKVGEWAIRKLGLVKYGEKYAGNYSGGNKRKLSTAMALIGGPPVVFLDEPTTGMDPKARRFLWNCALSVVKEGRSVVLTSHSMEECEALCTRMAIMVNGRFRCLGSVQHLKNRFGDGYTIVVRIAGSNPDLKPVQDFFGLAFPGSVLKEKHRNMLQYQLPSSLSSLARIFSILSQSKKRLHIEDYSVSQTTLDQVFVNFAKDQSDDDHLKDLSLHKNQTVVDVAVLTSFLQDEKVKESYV

On to `CC(C)[C@@H](O)CC[C@@H](C)[C@H]1CC[C@H]2[C@@H]3CC=C4C[C@@H](O)CC[C@]4(C)[C@H]3CC[C@]12C` [24-OHC, 24(S)-hydroxycholesterol], for which the “LDLR expression (degradation)” value in the assay with LDLR [1] is “dose-dependent LDLR degradation”. The glioma cell death result in assay [2] is “dramatic cell death”.
Regarding `CCc1n(CC(=O)O[C@@H]2C[C@H](C)CC[C@H]2C(C)C)c2ccccc2[n+]1C.[Cl-]` [Gboxin], in assay [3], the growth of tumours result is “suppresses the growth of tumours”. Moreover, the “glioma proliferation and cell death” value in the assay with glioma [4] was “inhibit glioma proliferation and induce cell death”.
`COc1ccc(Cl)cc1C(=O)NCCc1ccc(S(=O)(=O)NC(=O)NC2CCCCC2)cc1` [Glyburide]: the ABCA1 inhibitor potency result in assay [5] is “potent”. The “attenuation of the astrocyte-dependent rescue of glioma cells from cholesterol deprivation (glioma cell death), relative efficiency” value in assay [6] was “the most potent”. Also, in the assay on GL261 glioma (GBM), the “survival of subjects having GBM in-vivo” value is “prolonging survival”, the “tumor size of subjects having GBM in-vivo” value was “decreasing tumor size” and the “weight loss of subjects having GBM in-vivo” value is “preventing weight loss”.
`FC(F)(F)c1ccc(CNc2ccc(Cc3c[nH]c4ncc(Cl)cc34)cn2)cn1` [PLX3397]: the glioma expansion entry with glioma [7] is reported as “reduces glioma expansion”.
For “PCSK9: wild type PCSK9 secreted into astrocyte-conditioned medium by lentivirus-transduced astrocytes”, the “levels of LDLR in GL261 glioma cells” value with LDLR [8] was “decreased levels of LDLR”.
